In patent US6110888A, “Substituted phenols as fragrance, flavor and antimicrobial compounds” (Takasago International Corporation, priority 1999, dated 2000):
≈ marks a conversion by molar mass, not a printed value. Read-outs that look alike come from different tables or passages of the source.

What was measured:
Escherichia coli = experiment: MIC, E. coli (Table 2); format: cell-based; settings: read-out: Anti-Microbial Activity MIC, E. c.
Method: (§1) Anti-Microbial Activity of Examples 1-6 (MIC in μg/mL)
(§2) Antimicrobial activity was evaluated to determine minimal inhibitory concentration ("MIC") and Minimal Bactericidal Concentration ("MBC"). The specific biological testing protocol is published R. Kang et al., "J. Agric. Food Chem.," vol. 40 pp. 2328-2330 (1994), the entirety of which is herein incorporated by reference.

Staphylococcus aureus = experiment: MIC, S. aureus (Table 1); format: cell-based; settings: read-out: Anti-Microbial Activity MIC, S. a.
Method: (§3) The anti-microbial activity of Examples 1-6 were evaluated.
as §1, §2

Actinomyces neaslundii = experiment: MIC, A. neaslundii (Table 1); format: cell-based; settings: read-out: Anti-Microbial Activity MIC, A. neasl
Method: as §3, §1, §2

Steptococcus mutans = experiment: MIC, S. mutans (Table 1); format: cell-based; settings: Streptococcus mutans, read-out: Anti-Microbial Activity MIC, S. m.
Method: as §3, §1, §2

[1] = system: Staphylococcus epidermidis; experiment: MIC, S. epidermidis (Table 1); format: cell-based; settings: read-out: Anti-Microbial Activity MIC, S. e.
Method: as §3, §1, §2

Candida albicans = experiment: MIC, C. albicans (Table 2); format: cell-based; settings: read-out: Anti-Microbial Activity MIC, C. a.
Method: as §1, §2

[2] = system: Corynebacterium minutissimum; experiment: MIC, C. minutissimum (Table 1); format: cell-based; settings: read-out: Anti-Microbial Activity MIC, C. m.
Method: as §3, §1, §2

Aspergillus niger = experiment: MIC, A. niger (Table 2); format: cell-based; settings: read-out: Anti-Microbial Activity MIC, A. niger
Method: as §1, §2

Pseudomonas aeruginosa = experiment: MIC, P. aeruginosa (Table 2); format: cell-based; settings: read-out: Anti-Microbial Activity MIC, P. aerug.
Method: as §1, §2

Corynebacterium xerosis = experiment: MIC, C. xerosis (Table 1); format: cell-based; settings: read-out: Anti-Microbial Activity MIC, C. x.
Method: as §3, §1, §2

Propionibacterium acnes = experiment: MIC, P. acnes (Table 1); format: cell-based; settings: Cutibacterium acnes, read-out: Anti-Microbial Activity MIC, P. acnes
Method: as §3, §1, §2

[3] = system: bacteria involved in upper respiratory tract infections; settings: N. Didry et al. 1993; cited from earlier work
oral bacteria = settings: N. Didry et al. 1994; cited from earlier work
[4] = A. neaslundii strain 19039, gram+
[5] = S. epidermidis strain 1228, gram+
[6] = C. albicans strain 10231, fungi
[7] = C. minutissimum strain 23348, gram+
[8] = P. aeruginosa strain 15442, gram -

Structure (SMILES) | MIC (Escherichia coli; E. coli strain 11229, gram -) [µg/mL] | MIC (Staphylococcus aureus; S. aureus strain 6535, gram+) [µg/mL] | MIC (Actinomyces neaslundii; [4]) [µg/mL] | MIC (Steptococcus mutans; S. mutans strain 25175, gram+) [µg/mL] | MIC [1, 5] [µg/mL] | MIC (Candida albicans; [6]) [µg/mL] | MIC [2, 7] [µg/mL] | MIC (Aspergillus niger; A. niger strain 16404, fungi) [µg/mL] | MIC (Pseudomonas aeruginosa; [8]) [µg/mL] | MIC (Corynebacterium xerosis; C. xerosis strain 373, gram+) [µg/mL] | MIC (Propionibacterium acnes; P. acnes strain 6919, gram+) [µg/mL] | further results
C=CCc1cc(C(C)(C)C)ccc1O [Example 5, Ortho Allyl Para tert-Butyl Phenol] | > 500 | 31.2 (≈ 164 µM) | – | – | 31.2 (≈ 164 µM) | – | 31.2 (≈ 164 µM) | – | – | 31.2 (≈ 164 µM) | 15.6 (≈ 82 µM) | –
CCCc1cc(C(C)(C)C)ccc1O [Example 6, Ortho Propyl Para tert-Butyl Phenol] | > 500 | 15.6 (≈ 81.1 µM) | – | – | 15.6 (≈ 81.1 µM) | – | 15.6 (≈ 81.1 µM) | – | – | 15.6 (≈ 81.1 µM) | 7.8 (≈ 40.6 µM) | –
Cc1ccc(C(C)C)c(O)c1 [Thymol, thymol, reference compound] | 250 (≈ 1660 µM) | 250 (≈ 1660 µM) | 125 (≈ 832 µM) | 250 (≈ 1660 µM) | 250 (≈ 1660 µM) | 250 (≈ 1660 µM) | 125 (≈ 832 µM) | 125 (≈ 832 µM) | > 1000 | 250 (≈ 1660 µM) | 125 (≈ 832 µM) | antimicrobial activity in several in vitro methods [3]: broad spectrum activity; inhibitory activity on several microorganisms (oral bacteria): showed an inhibitory activity on several microorganisms
Cc1ccc(C(C)C)cc1O [carvacrol, reference compound] | – | – | – | – | – | – | – | – | – | – | – | MIC (Escherichia coli): 500 µg/mL (≈ 3330 µM); MIC (Staphylococcus aureus): 125 µg/mL (≈ 832 µM); MIC (Actinomyces neaslundii): 125 µg/mL (≈ 832 µM); MIC (Steptococcus mutans): 125 µg/mL (≈ 832 µM); antimicrobial activity in several in vitro methods [3]: broad spectrum activity; MIC [1]: 125 µg/mL (≈ 832 µM); MIC (Candida albicans): 250 µg/mL (≈ 1660 µM); MIC [2]: 125 µg/mL (≈ 832 µM); MIC (Aspergillus niger): 250 µg/mL (≈ 1660 µM); MIC (Pseudomonas aeruginosa): > 1000 µg/mL; MIC (Corynebacterium xerosis): 125 µg/mL (≈ 832 µM); MIC (Propionibacterium acnes): 125 µg/mL (≈ 832 µM); inhibitory activity on several microorganisms (oral bacteria): showed an inhibitory activity on several microorganisms
O=CC=Cc1ccccc1 [cinnamaldehyde] | – | – | – | – | – | – | – | – | – | – | – | antimicrobial activity in several in vitro methods [3]: broad spectrum activity; inhibitory activity on several microorganisms (oral bacteria): showed an inhibitory activity on several microorganisms
C=CCc1ccc(O)c(OC)c1 [eugenol] | – | – | – | – | – | – | – | – | – | – | – | inhibitory activity on several microorganisms (oral bacteria): showed an inhibitory activity on several microorganisms

Second part, led by results:

MIC (Escherichia coli; E. coli strain 11229, gram -) [µg/mL] | MIC (Staphylococcus aureus; S. aureus strain 6535, gram+) [µg/mL] | MIC (Actinomyces neaslundii; [4]) [µg/mL] | MIC (Steptococcus mutans; S. mutans strain 25175, gram+) [µg/mL] | MIC [1, 5] [µg/mL] | MIC (Candida albicans; [6]) [µg/mL] | MIC [2, 7] [µg/mL] | MIC (Aspergillus niger; A. niger strain 16404, fungi) [µg/mL] | MIC (Pseudomonas aeruginosa; [8]) [µg/mL] | MIC (Corynebacterium xerosis; C. xerosis strain 373, gram+) [µg/mL] | MIC (Propionibacterium acnes; P. acnes strain 6919, gram+) [µg/mL] | Structure (SMILES) | further results
> 1000 | 62.5 (≈ 328 µM) | 62.5 (≈ 328 µM) | 62.5 (≈ 328 µM) | 62.5 (≈ 328 µM) | 125 (≈ 657 µM) | 62.5 (≈ 328 µM) | 125 (≈ 657 µM) | > 1000 | 62.5 (≈ 328 µM) | 62.5 (≈ 328 µM) | C=CCc1c(C)ccc(C(C)C)c1O [Example 1a, Ortho Allyl Thymol] | –
> 1000 | 62.5 (≈ 328 µM) | 62.5 (≈ 328 µM) | 31.2 (≈ 164 µM) | 62.5 (≈ 328 µM) | 125 (≈ 657 µM) | 62.5 (≈ 328 µM) | 125 (≈ 657 µM) | > 1000 | 62.5 (≈ 328 µM) | 31.2 (≈ 164 µM) | C=CCc1cc(C(C)C)c(O)cc1C [Example 1b, Para Allyl Thymol] | –
> 1000 | 62.5 (≈ 328 µM) | 62.5 (≈ 328 µM) | 62.5 (≈ 328 µM) | 62.5 (≈ 328 µM) | 125 (≈ 657 µM) | 62.5 (≈ 328 µM) | 125 (≈ 657 µM) | > 1000 | 62.5 (≈ 328 µM) | 31.2 (≈ 164 µM) | C=CCc1c(C(C)C)ccc(C)c1O [Example 2a, Ortho Allyl Carvacrol] | –
– | 62.5 (≈ 328 µM) | – | 62.5 (≈ 328 µM) | 62.5 (≈ 328 µM) | 125 (≈ 657 µM) | 62.5 (≈ 328 µM) | 125 (≈ 657 µM) | – | 62.5 (≈ 328 µM) | 62.5 (≈ 328 µM) | C=CCc1cc(C)c(O)cc1C(C)C [Example 2b, Para Allyl Carvacrol] | –
> 1000 | 62.5 (≈ 325 µM) | 62.5 (≈ 325 µM) | 31.2 (≈ 163 µM) | 62.5 (≈ 325 µM) | 125 (≈ 650 µM) | 62.5 (≈ 325 µM) | 125 (≈ 650 µM) | > 1000 | 62.5 (≈ 325 µM) | 31.2 (≈ 163 µM) | CCCc1c(C)ccc(C(C)C)c1O [Example 3a, Ortho Propyl Thymol] | –
> 1000 | 31.2 (≈ 163 µM) | 31.2 (≈ 163 µM) | 31.2 (≈ 163 µM) | 31.2 (≈ 163 µM) | 62.5 (≈ 325 µM) | 31.2 (≈ 163 µM) | 125 (≈ 650 µM) | > 1000 | 31.2 (≈ 163 µM) | 31.2 (≈ 163 µM) | CCCc1cc(C(C)C)c(O)cc1C [Example 3b, Para Propyl Thymol] | –
> 1000 | 125 (≈ 650 µM) | 31.2 (≈ 163 µM) | 31.2 (≈ 163 µM) | 31.2 (≈ 163 µM) | 62.5 (≈ 325 µM) | 31.2 (≈ 163 µM) | 125 (≈ 650 µM) | > 1000 | 31.2 (≈ 163 µM) | 31.2 (≈ 163 µM) | CCCc1c(C(C)C)ccc(C)c1O [Example 4a, Ortho Propyl Carvacrol] | –
> 1000 | ≤ 15.6 | ≤ 15.6 | ≤ 15.6 | 31.2 (≈ 163 µM) | 62.5 (≈ 325 µM) | ≤ 15.6 | 62.5 (≈ 325 µM) | > 1000 | ≤ 15.6 | ≤ 15.6 | CCCc1cc(C)c(O)cc1C(C)C [Example 4b, Para Propyl Carvacrol] | –
